Patent publication US10988477B2 (Merck Patent GmbH, priority 2018, dated 2021)
Like-named read-outs stand apart in the source and are kept apart here.

Columns and labels:
[1] = molecular target: GCN2 kinase (Homo sapiens, UniProt Q9P2K8); assay: GCN2 enzyme inhibition assay (Transcreener ADP2 fluorescence polarization); format: biochemical; details: 280 μM ATP, 4 nM GCN2 kinase
Outline: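 Kinase activity is followed as ADP formation, measured by fluorescence polarization, using 4 nM enzyme with 280 μM ATP and 200 μM (RS)7 peptide at pH 7.5 and 25 °C for 1 h. Values come from a non-linear tight-binding fit.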

[2] = molecular target: intracellular GCN2 (phosphorylation of the GCN2 substrate eIF2α) (Homo sapiens, UniProt Q9P2K8); assay: GCN2 cellular inhibition assay (AlphaScreen SureFire P-eIF2α Ser51, borrelidin-treated U2OS cells); format: cell-based
intracellular GCN2 (phosphorylation of the GCN2 substrate eIF2α), sequence (Q9P2K8 whole entry): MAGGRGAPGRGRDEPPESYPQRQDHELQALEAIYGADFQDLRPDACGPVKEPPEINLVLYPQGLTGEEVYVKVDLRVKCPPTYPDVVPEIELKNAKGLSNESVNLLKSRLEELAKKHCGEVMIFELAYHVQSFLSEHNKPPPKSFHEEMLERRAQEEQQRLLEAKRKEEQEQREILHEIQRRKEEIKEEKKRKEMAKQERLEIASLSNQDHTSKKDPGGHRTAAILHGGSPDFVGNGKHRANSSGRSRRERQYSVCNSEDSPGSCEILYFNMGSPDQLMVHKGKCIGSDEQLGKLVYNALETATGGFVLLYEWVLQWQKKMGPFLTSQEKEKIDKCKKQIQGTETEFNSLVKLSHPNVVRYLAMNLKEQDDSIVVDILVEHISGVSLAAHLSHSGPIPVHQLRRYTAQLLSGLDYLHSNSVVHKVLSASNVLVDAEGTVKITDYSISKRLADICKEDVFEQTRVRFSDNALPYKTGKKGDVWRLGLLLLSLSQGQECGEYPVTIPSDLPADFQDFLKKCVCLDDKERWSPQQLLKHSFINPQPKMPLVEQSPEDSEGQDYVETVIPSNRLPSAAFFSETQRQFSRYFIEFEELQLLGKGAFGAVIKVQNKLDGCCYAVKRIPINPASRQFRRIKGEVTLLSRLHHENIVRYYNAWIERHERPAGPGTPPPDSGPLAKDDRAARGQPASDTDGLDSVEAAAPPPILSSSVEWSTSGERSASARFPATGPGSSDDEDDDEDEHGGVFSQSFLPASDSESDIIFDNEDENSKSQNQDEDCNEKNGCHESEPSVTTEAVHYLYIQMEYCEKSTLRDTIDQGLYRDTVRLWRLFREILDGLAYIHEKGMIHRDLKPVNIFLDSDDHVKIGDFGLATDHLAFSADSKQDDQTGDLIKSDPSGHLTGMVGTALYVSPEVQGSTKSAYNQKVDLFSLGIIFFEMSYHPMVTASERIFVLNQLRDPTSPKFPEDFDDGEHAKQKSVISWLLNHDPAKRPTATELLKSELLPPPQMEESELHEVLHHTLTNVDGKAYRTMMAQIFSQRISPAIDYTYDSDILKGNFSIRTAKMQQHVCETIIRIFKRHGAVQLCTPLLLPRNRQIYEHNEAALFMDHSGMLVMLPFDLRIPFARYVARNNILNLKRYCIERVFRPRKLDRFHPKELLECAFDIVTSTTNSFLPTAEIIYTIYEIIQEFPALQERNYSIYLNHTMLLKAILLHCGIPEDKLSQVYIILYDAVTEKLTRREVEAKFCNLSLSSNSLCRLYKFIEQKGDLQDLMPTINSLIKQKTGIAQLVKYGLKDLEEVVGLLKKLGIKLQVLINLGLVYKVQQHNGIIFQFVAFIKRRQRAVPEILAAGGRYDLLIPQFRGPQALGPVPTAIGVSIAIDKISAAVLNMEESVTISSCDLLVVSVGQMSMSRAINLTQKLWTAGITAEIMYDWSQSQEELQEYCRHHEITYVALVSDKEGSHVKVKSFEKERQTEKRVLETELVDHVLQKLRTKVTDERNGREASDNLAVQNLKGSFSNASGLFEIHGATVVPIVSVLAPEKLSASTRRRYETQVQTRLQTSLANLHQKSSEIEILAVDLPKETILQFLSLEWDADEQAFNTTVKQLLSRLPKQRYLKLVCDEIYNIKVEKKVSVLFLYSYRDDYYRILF
Outline: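 U2OS cells adhered overnight, then treated with compounds (4-fold serial dilutions from 40 μM final) plus borrelidin 10 μM final for 1 h at 37 °C. Lysate eIF2α Ser51 phosphorylation measured by AlphaScreen SureFire. Percent inhibition calculated relative to borrelidin-only wells.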

[3] = compounds of Formula V, U2OS cells, 10 μM borrelidin, 1 h, read-out: GCN2 Biomarker (IC50)
[4] = compounds of Formula II, biomarker assay, phosphorylated eIF2α Ser51 in borrelidin-treated U2OS cells

GCN2 kinase, sequence (Q9P2K8 whole entry): as above

Row | Structure (SMILES) | Ki ([1]; compounds of Formula V) | IC50 [2, 3] | Ki ([1]; compounds of Formula II) | IC50 [2, 4]
1 | CC1CC(CS(C)(=N)=O)C(C)N(c2ccnc(-c3cnc4sc(C(F)(F)F)cn34)n2)C1 (stereo not drawn) [Compound V-16, ((2,5-Dimethyl-1-(2-(2-(trifluoromethyl)imidazo[2,1-b]thiazol-5-yl)pyrimidin-4-yl)piperidin-3-yl)methyl)(imino)(methyl)-λ^6-sulfanone] | 0.1 to 1 µM | > 5 µM |  | 
2 | CC1CC(CS(C)(=N)=O)C(C)N(c2ccnc(-c3cnc4sc(C(F)(F)F)cn34)n2)C1 (stereo not drawn) [Compound V-17, ((2,5-Dimethyl-1-(2-(2-(trifluoromethyl)imidazo[2,1-b]thiazol-5-yl)pyrimidin-4-yl)piperidin-3-yl)methyl)(imino)(methyl)-λ^6-sulfanone] | 0.01 to 0.1 µM | 0.5 to 5 µM |  | 
3 | FC(F)(F)c1cn2c(-c3nccc(N4CCOC(c5cn[nH]c5)C4)n3)cnc2s1 (stereo not drawn) [Compound V-20, 2-(1H-pyrazol-4-yl)-4-(2-(2-(trifluoromethyl)imidazo[2,1-b]thiazol-5-yl)pyrimidin-4-yl)morpholine] | < 0.01 µM | < 0.5 µM |  | 
4 | CC1CCC(CNS(C)(=O)=O)CN1c1cc(-c2cnc3ccc(C(F)F)nn23)ncn1 (stereo not drawn) [II-3, N-((1-(6-(6-(Difluoromethyl)imidazo[1,2-b]pyridazin-3-yl)pyrimidin-4-yl)-6-methylpiperidin-3-yl)methyl)methanesulfonamide] |  |  | < 0.01 µM | 0.5 to 5 µM
5 | CS(=O)(=O)N1CCCC(c2cc(-c3cnc4ccc(C(F)F)nn34)ncn2)CC1 (stereo not drawn) [II-14, 6-(Difluoromethyl)-3-(6-(1-(methylsulfonyl)azepan-4-yl)pyrimidin-4-yl)imidazo[1,2-b]pyridazine] |  |  | 0.01 to 1 µM | > 5 µM
6 | CS(=O)(=O)NCCC1CCN(c2cc(-c3cnc4ccc(C(F)F)nn34)ncn2)C1 (stereo not drawn) [II-17, N-(2-(1-(6-(6-(Difluoromethyl)imidazo[1,2-b]pyridazin-3-yl)pyrimidin-4-yl)pyrrolidin-3-yl)ethyl)methanesulfonamide] |  |  | 0.01 to 1 µM | 0.5 to 5 µM
7 | CS(=O)(=O)N1CCCC(c2cc(-c3cnc4ccc(C(F)F)nn34)ncn2)C1 (stereo not drawn) [II-21, 6-(Difluoromethyl)-3-(6-(1-(methylsulfonyl)piperidin-3-yl)pyrimidin-4-yl)imidazo[1,2-b]pyridazine] |  |  | 0.01 to 1 µM | > 5 µM
8 | CS(=O)(=O)N1CCCN(c2cc(-c3cnc4ccc(C(F)F)nn34)ncn2)CC1 [II-22, 6-(Difluoromethyl)-3-(6-(4-(methylsulfonyl)-1,4-diazepan-1-yl)pyrimidin-4-yl)imidazo[1,2-b]pyridazine] |  |  | 0.01 to 1 µM | > 5 µM
9 | NS(=O)(=O)N1CCCN(c2cc(-c3cnc4ccc(C(F)F)nn34)ncn2)CC1 [II-24, 4-(6-(6-(Difluoromethyl)imidazo[1,2-b]pyridazin-3-yl)pyrimidin-4-yl)-1,4-diazepane-1-sulfonamide] |  |  | 0.01 to 1 µM | > 5 µM
10 | CN=S(C)(=O)CC1CCCN(c2cc(-c3cnc4ccc(C(F)F)nn34)ncn2)C1 (stereo not drawn) [II-26, [1-[6-[6-(Difluoromethyl)imidazo[1,2-b]pyridazin-3-yl]pyrimidin-4-yl]-3-piperidyl]methyl-methyl-methylimino-oxo-sulfane] |  |  | 0.01 to 1 µM | > 5 µM
11 | Clc1ccc2ncc(-c3ccnc(-c4ccccc4)c3)n2n1 [II-27, 6-Chloro-3-(2-phenylpyridin-4-yl)imidazo[1,2-b]pyridazine] |  |  | 0.01 to 1 µM | > 5 µM
12 | FC(F)c1ccc2ncc(-c3cc(N4CCOC(Cn5cnnc5)C4)ncn3)n2n1 (stereo not drawn) [II-29, 2-((4H-1,2,4-Triazol-4-yl)methyl)-4-(6-(6-(difluoromethyl)imidazo[1,2-b]pyridazin-3-yl)pyrimidin-4-yl)morpholine] |  |  | 0.01 to 1 µM | > 5 µM
13 | N#CCC(=O)N1CCCC(c2cc(-c3cnc4ccc(C(F)F)nn34)ncn2)C1 (stereo not drawn) [II-30, 3-(3-(6-(6-(Difluoromethyl)imidazo[1,2-b]pyridazin-3-yl)pyrimidin-4-yl)piperidin-1-yl)-3-oxopropanenitrile] |  |  | 0.01 to 1 µM | 0.5 to 5 µM
14 | CC1CN(c2cc(-c3cnc4ccc(C(F)F)nn34)ncn2)CC(CNS(C)(=O)=O)O1 (stereo not drawn) [II-31, N-((4-(6-(6-(Difluoromethyl)imidazo[1,2-b]pyridazin-3-yl)pyrimidin-4-yl)-6-methylmorpholin-2-yl)methyl)methanesulfonamide] |  |  | < 0.01 µM | < 0.5 µM
15 | CC1CN(c2cc(-c3cnc4ccc(C(F)F)nn34)ncn2)CC(CNS(C)(=O)=O)O1 (stereo not drawn) [II-32, N-((4-(6-(6-(Difluoromethyl)imidazo[1,2-b]pyridazin-3-yl)pyrimidin-4-yl)-6-methylmorpholin-2-yl)methyl)methanesulfonamide] |  |  | < 0.01 µM | < 0.5 µM

Next, values leading:

Row | Ki ([1]; compounds of Formula V) | IC50 [2, 3] | Ki ([1]; compounds of Formula II) | IC50 [2, 4] | Structure (SMILES)
16 |  |  | 0.01 to 1 µM | 0.5 to 5 µM | FC(F)c1ccc2ncc(-c3cc(N4CCOC(c5cn[nH]c5)C4)ncn3)n2n1 (stereo not drawn) [II-4, 4-(6-(6-(Difluoromethyl)imidazo[1,2-b]pyridazin-3-yl)pyrimidin-4-yl)-2-(1H-pyrazol-4-yl)morpholine]
17 |  |  | > 1 µM | > 5 µM | CN1C(=O)CN(c2cc(-c3cnc4ccc(C(F)F)nn34)ncn2)C[C@H]1CNS(C)(=O)=O [II-7, (S)—N-((4-(6-(6-(Difluoromethyl)imidazo[1,2-b]pyridazin-3-yl)pyrimidin-4-yl)-1-methyl-6-oxopiperazin-2-yl)methyl)methanesulfonamide]
18 |  |  | 0.01 to 1 µM | 0.5 to 5 µM | CC1CC(CNS(C)(=O)=O)CN1c1cc(-c2cnc3ccc(C(F)F)nn23)ncn1 (stereo not drawn) [II-8, N-((1-(6-(6-(Difluoromethyl)imidazo[1,2-b]pyridazin-3-yl)pyrimidin-4-yl)-5-methylpyrrolidin-3-yl)methyl)methanesulfonamide]
19 |  |  | 0.01 to 1 µM | 0.5 to 5 µM | OC[C@@H]1CN(c2cc(-c3cnc4ccc(C(F)F)nn34)ncn2)CCO1 [II-9, (S)-(4-(6-(6-(Difluoromethyl)imidazo[1,2-b]pyridazin-3-yl)pyrimidin-4-yl)morpholin-2-yl)methanol]
20 |  |  | 0.01 to 1 µM | > 5 µM | CS(C)(=O)=NC[C@@H]1CN(c2cc(-c3cnc4ccc(C(F)F)nn34)ncn2)CCO1 [II-10, [(2S)-4-[6-[6-(Difluoromethyl)imidazo[1,2-b]pyridazin-3-yl]pyrimidin-4-yl]morpholin-2-yl]methylimino-dimethyl-oxo-sulfane]
21 |  |  | 0.01 to 1 µM | > 5 µM | CS(=O)(=O)NCC1CN(c2cc(-c3cnc4ccc(C(F)F)nn34)ncn2)c2ccccc21 (stereo not drawn) [II-11, N-((1-(6-(6-(Difluoromethyl)imidazo[1,2-b]pyridazin-3-yl)pyrimidin-4-yl)indolin-3-yl)methyl)methanesulfonamide]
22 |  |  | 0.01 to 1 µM | 0.5 to 5 µM | CS(=O)(=O)NCC1CC(O)CN(c2cc(-c3cnc4ccc(C(F)F)nn34)ncn2)C1 (stereo not drawn) [II-12, N-((1-(6-(6-(Difluoromethyl)imidazo[1,2-b]pyridazin-3-yl)pyrimidin-4-yl)-5-hydroxypiperidin-3-yl)methyl)methanesulfonamide]
23 |  |  | < 0.01 µM | 0.5 to 5 µM | CS(=O)(=O)NCC1CC(O)CN(c2cc(-c3cnc4ccc(C(F)F)nn34)ncn2)C1 (stereo not drawn) [II-13, N-((1-(6-(6-(Difluoromethyl)imidazo[1,2-b]pyridazin-3-yl)pyrimidin-4-yl)-5-hydroxypiperidin-3-yl)methyl)methanesulfonamide]
24 |  |  | 0.01 to 1 µM | > 5 µM | O=C1CCN(c2cc(-c3cnc4ccc(C(F)F)nn34)ncn2)CCN1 [II-15, 1-(6-(6-(Difluoromethyl)imidazo[1,2-b]pyridazin-3-yl)pyrimidin-4-yl)-1,4-diazepan-5-one]
25 |  |  | 0.01 to 1 µM | > 5 µM | NC(=O)C1CN(c2cc(-c3cnc4ccc(C(F)F)nn34)ncn2)c2ccccc21 (stereo not drawn) [II-16, 1-(6-(6-(Difluoromethyl)imidazo[1,2-b]pyridazin-3-yl)pyrimidin-4-yl)indoline-3-carboxamide]
26 |  |  | < 0.01 µM | < 0.5 µM | CC1CN(c2cc(-c3cnc4ccc(C(F)F)nn34)ncn2)CC1CNS(C)(=O)=O (stereo not drawn) [II-18, N-((1-(6-(6-(Difluoromethyl)imidazo[1,2-b]pyridazin-3-yl)pyrimidin-4-yl)-4-methylpyrrolidin-3-yl)methyl)methanesulfonamide]
27 |  |  | 0.01 to 1 µM | 0.5 to 5 µM | CS(=O)(=O)C1CCCN(c2cc(-c3cnc4ccc(C(F)F)nn34)ncn2)C1 (stereo not drawn) [II-19, 6-(Difluoromethyl)-3-(6-(3-(methylsulfonyl)piperidin-1-yl)pyrimidin-4-yl)imidazo[1,2-b]pyridazine]
28 |  |  | 0.01 to 1 µM | > 5 µM | FC(F)c1ccc2ncc(-c3cc(N4CCc5ccccc54)ncn3)n2n1 [II-20, 6-(Difluoromethyl)-3-(6-(indolin-1-yl)pyrimidin-4-yl)imidazo[1,2-b]pyridazine]
29 |  |  | 0.01 to 1 µM | > 5 µM | CS(=O)(=O)NC[C@@H]1CN(c2cc(-c3cnc4ccc(C(F)F)nn34)ncn2)CC(=O)N1 [II-25, (S)—N-((4-(6-(6-(Difluoromethyl)imidazo[1,2-b]pyridazin-3-yl)pyrimidin-4-yl)-6-oxopiperazin-2-yl)methyl)methanesulfonamide]
30 |  |  | 0.01 to 1 µM | < 0.5 µM | FC(F)c1ccc2ncc(-c3cc(N4Cc5ccncc5C4)ncn3)n2n1 [II-28, 3-(6-(1H-Pyrrolo[3,4-c]pyridin-2(3H)-yl)pyrimidin-4-yl)-6-(difluoromethyl)imidazo[1,2-b]pyridazine]
